The target of assay [1] is T1, AURKA (Homo sapiens, UniProt O14965).
T1 sequence (O14965 1-403): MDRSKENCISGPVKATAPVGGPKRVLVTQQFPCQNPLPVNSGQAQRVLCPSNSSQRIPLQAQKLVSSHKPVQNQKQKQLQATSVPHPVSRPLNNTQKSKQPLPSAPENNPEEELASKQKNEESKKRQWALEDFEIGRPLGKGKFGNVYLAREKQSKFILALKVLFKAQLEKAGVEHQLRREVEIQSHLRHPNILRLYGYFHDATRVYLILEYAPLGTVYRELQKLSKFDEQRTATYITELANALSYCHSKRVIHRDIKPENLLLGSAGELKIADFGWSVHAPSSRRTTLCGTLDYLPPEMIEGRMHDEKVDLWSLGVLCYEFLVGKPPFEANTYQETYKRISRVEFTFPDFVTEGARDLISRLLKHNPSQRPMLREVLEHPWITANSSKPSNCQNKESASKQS
Kind of assay: cell-based. The conditions noted are these: permeabilized cells; read-out: AURKA permeabilized (IC50±sd)/µM. Details: species or system HEK293T; NanoBRET tracer displacement in permeabilized cells, NanoLuc fusion protein, Tracer K10.

Assay [2] concerns the target T2, full-length AAK1 (Homo sapiens, UniProt Q2M2I8). Kind of assay: cell-based. Set-up: species or system HEK293T; NanoBRET tracer displacement in permeabilized cells, NanoLuc fusion protein, Tracer K10. The conditions noted are these: permeabilized cells; read-out: AAK1 permeabilized (IC50±sd)/µM.
Assay [3] concerns the target T1, AURKA. The experiment in a line: cell-based. Details: species or system HEK293T; NanoBRET tracer displacement in intact cells, NanoLuc fusion protein, Tracer K10. Conditions: intact cells; read-out: AURKA intact (IC50±sd)/µM. From the text: (§1) Compounds were pipetted at various concentrations using an Echo acoustic dispenser (Labcyte), immediately followed by Tracer K10 (Promega, Tracer DB ID: T000008) for AAK1 and Aurora A and VHL Tracer (Promega, Tracer DB ID: T000019) for VHL, at an optimum KD concentration chosen from TracerDB (tracerdb.org), respectively.

Assay [4] deals with T2, full-length AAK1. The experiment in a line: cell-based. Conditions: intact cells; read-out: AAK1 intact (IC50±sd)/µM. Set-up: species or system HEK293T; NanoBRET tracer displacement in intact cells, NanoLuc fusion protein, Tracer K10.
Excerpt: as §1

Assay [5] addresses T3, ITK^HiBiT (Homo sapiens, UniProt Q08881).
T3 construct: HiBiT-ITK construct was cloned by PCR amplification of vector containing full-length; expressed in transfected cells
T3 sequence (Q08881 1-620): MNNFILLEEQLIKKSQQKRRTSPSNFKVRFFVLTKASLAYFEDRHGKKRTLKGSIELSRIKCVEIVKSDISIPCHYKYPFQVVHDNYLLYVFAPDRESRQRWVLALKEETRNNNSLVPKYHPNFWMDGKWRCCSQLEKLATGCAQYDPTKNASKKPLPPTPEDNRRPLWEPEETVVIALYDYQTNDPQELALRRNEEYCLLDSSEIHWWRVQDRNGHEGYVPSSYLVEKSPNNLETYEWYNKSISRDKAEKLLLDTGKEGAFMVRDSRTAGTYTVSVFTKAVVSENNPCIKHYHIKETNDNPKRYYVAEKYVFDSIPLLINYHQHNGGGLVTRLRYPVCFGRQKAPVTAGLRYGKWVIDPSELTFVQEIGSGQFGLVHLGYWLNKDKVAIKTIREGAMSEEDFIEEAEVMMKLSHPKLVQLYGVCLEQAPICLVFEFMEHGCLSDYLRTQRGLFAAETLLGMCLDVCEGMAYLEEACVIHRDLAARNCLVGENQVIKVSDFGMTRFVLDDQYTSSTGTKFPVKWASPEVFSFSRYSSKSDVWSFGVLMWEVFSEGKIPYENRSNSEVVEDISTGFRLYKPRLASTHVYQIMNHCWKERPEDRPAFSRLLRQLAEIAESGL
The experiment in a line: HiBiT assay, Jurkat cells expressing ITK^HiBiT. It counts as cell-based. Conditions: 6 h. Here is the method:
Cell culture. Human MV4-11 ([…]) and human Jurkat ([…]) cells were cultured in RPMI- […]
1640 medium whereas human HEK293 ([…]) cells were cultured in DMEM medium at 37 °C in 5% CO2. Both media were supplemented with 10% FBS and 1% penicillin/streptomycin.
Cloning. HiBiT-ITK construct was cloned by PCR amplification of vector containing full-length
ITK. The PCR product was inserted into pRRL-PGK-HiBiT entry vector using AgeI/MluI sites.
The following primers were used for cloning HiBiT-ITK; forward: […]
Cell line generation. The stable cell line MV4-11 AURORA−HiBiT was generated as previously described.14 Lentiviral infection was used to generate the stable Jurkat HiBiT cell line.
Lentivirus was produced using plasmids psPAX2, pMD2.G, and HiBiT-ITK plasmid in HEK293 cells. Jurkat cells were infected with filtered virus supernatant and selected after 48 h of infection for the generation of the stable JurkatITK-HiBiT cell line.
HiBiT Measurements. HiBiT assay was performed as described previously. 14 Briefly, MV4-11 and Jurkat HiBiT cells were seeded and treated with compounds for the indicated time. Nano-Glo HiBiT Lytic Detection System (Promega) was used for the assay and luminescence was measured on a Tecan Spark Multiplate reader (Tecan). DC50s were calculated using the dose-response (four parameters) equation in Prism (GraphPad).
(In general: With HiBiT, luminescence reflects the tagged protein that the partner subunit can reach.)

Each structure is given as a SMILES string. Where two headings read alike, the source gives them in different places.

Consider three molecules from publication PMC11851430, “Workflow for E3 Ligase Ligand Validation for PROTAC Development” (ACS Chemical Biology, 2025).

T2 sequence (Q2M2I8 whole entry, the tested form may be a part): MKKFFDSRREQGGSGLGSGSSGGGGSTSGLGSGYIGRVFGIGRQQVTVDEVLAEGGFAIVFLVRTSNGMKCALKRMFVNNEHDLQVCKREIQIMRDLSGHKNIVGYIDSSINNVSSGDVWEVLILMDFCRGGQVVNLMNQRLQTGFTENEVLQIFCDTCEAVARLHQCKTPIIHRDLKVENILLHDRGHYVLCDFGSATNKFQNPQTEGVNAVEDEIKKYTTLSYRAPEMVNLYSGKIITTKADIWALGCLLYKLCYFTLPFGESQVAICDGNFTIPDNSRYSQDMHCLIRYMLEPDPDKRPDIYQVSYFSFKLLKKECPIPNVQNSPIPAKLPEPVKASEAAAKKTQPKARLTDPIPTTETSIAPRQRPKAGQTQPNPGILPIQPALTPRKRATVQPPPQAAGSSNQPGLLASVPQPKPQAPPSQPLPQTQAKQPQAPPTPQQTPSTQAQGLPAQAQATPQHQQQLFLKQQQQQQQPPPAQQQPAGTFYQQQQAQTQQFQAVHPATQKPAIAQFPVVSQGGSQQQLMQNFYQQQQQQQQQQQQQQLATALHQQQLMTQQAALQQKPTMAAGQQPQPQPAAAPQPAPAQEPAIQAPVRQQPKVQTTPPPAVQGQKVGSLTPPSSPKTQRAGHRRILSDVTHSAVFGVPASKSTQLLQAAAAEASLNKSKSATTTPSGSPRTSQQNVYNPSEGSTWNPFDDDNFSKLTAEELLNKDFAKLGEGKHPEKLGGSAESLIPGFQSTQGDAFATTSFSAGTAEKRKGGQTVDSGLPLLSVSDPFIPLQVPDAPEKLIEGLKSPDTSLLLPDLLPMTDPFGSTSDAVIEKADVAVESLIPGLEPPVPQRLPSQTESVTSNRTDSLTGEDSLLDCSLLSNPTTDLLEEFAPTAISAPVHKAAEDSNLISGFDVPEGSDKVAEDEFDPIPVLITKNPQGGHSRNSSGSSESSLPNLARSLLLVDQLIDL

Take `Cc1ncsc1-c1ccc(CNC(=O)[C@@H]2C[C@H](O)CN2C(=O)[C@@H](NC(=O)CCOCCOCCOCCN2CCN(c3cc(Nc4cc(C5CC5)[nH]n4)nc(Nc4ccc(CC#N)cc4)n3)CC2)C(C)(C)C)cc1` [4-a^neg]: the IC50 is 1.89 ± 0.025 µM in assay [1], 0.04 ± 0.001 µM in assay [2], 5.04 ± 1.12 µM in assay [3] and 0.108 ± 0.042 µM in assay [4].
For the molecule `Cc1ncsc1-c1ccc(CNC(=O)[C@@H]2C[C@@H](O)CN2C(=O)[C@@H](NC(=O)CCOCCOCCOCCN2CCN(c3cc(Nc4cc(C5CC5)[nH]n4)nc(Nc4ccc(CC#N)cc4)n3)CC2)C(C)(C)C)cc1` [4-a], in assay [5], the DC50 came out at 937 nM and the Dmax was at most 71%.
In the case of `Cc1ncsc1-c1ccc(CNC(=O)[C@@H]2C[C@@H](O)CN2C(=O)[C@@H](NC(=O)CCOCCOCCOCCOCCN2CCN(c3ccc(Nc4ncc(Cl)c(Nc5ccccc5C(N)=O)n4)cc3)CC2)C(C)(C)C)cc1` [6-b], in assay [5], the DC50 came to 42 nM, the Dmax is at most 71% and the “concentration at which a hook effect was observed” value is above 1 µM.
